The subject of series [1] is NCI-H520. Kind of series: in vitro cytotoxicity (MTT). The conditions noted are these: NCI-H520. The series is classed as cell-based, human. The method, then:
(§1) We utilized two different incubation methods.
(§2) We then incubated the human cell lines with ADC, and equivalent concentrations of MMAE and native Ab for both 48 hours and 72 hours, the results of which can be seen in FIG. 13A-13E. We expected the results to correlate with the GPR87 expression we observed by flow cytometry. For the normal cell lines, this was the case. As detailed in FIG. 14, the line that was most sensitive to the ADC were the NHLFs, followed by the BEAS-2Bs, and the line with the lowest GPR87 expression, the HUVECs, had the highest IC50 after 72 hours. However, both the NSCLC cell lines had relatively high IC50s given the GPR87 expression status of these lines.
In comparison, NCI-H358 and NCI-H520 see approximately a 4-fold or 2-fold decrease in IC50, respectively, between the two time points. On the other hand, the NCI-H520 line has almost a 10-fold increase in MMAE IC50 at 72 hours compared to 48 hours. The results are likely because the cell lines are different sizes and morphologies and therefore are at different confluencies when plated at the same number of cells per well and are therefore likely to be in different parts of their log growth phase during treatment. For example, the NSCLC lines are typically at very low confluency at a plating density of 5,000 cells per well and may not reach log phase growth until later in the assay. As MMAE affects actively dividing cells, this will affect the results of the assay. While 72 hours was not the optimized end time point for all five cell lines, in order to have a standardized cell plating density, and therefore same ADC:cell ratio, going past 72 hours for some of the cell lines would lead to confluency or death in untreated control cells, which would also confound results. Thus, we incubated the two NSCLC lines for longer periods of time to allow the control cells to become more confluent by the assay endpoint, and to see how this would affect the ADC IC50.
(§3) Standard cytotoxicity assays, like the MTT assays ran here, measure or rather, approximate the cell number at an end point and compare to control untreated cells. Effectively what is measured is a comparison between growth rates. When comparing the efficacy of a drug, particularly a mitotic inhibitor, among different cell lines, division rate differences due to biology, media additives, or seeding density can have a dramatic effect on the IC50, an issue brought up by Hafner et al. They reported with both modeling and in vitro assays how using the IC50 as a metric can actually mask the true mechanism of a drug, for example the microtubule inhibitor paclitaxel. […] GR values indicate whether a drug inhibits growth (0<GR<1), is cytostatic (GR=0) or cytotoxic (GR<0). To calculate this parameter, one needs cell count data for at least two different time points and compares experimental growth rates to the growth rate of control cells. […] Consequently, we reviewed the data at our two time points to perform a similar analysis. We plated at the same seeding density for both the 48 and 72 hour time points. As MTT is an endpoint assay rather than a kinetic assay like MTS, we can use MTT signal as a proxy for cell count. […] Therefore, we excluded this cell line from our analysis. We are technically assessing the effect the ADC or equivalent MMAE has on the growth rate of cells at 60 hours, as we are measuring at t=x±delta t, with x being 60 and delta t being 12 hours. Ideally, we would assess an earlier time point or even multiple time points. […] (FIGS. 19A-19D). Conversely, both NCI-H520 and NCI-H358 are cytotoxic (GR<0) at higher concentrations of ADC at this time point. […] While the GR50 data is still not in agreement with GPR87 expression, it does indicate that this type of analysis at other, earlier, time points is useful in assessing the dynamics of ADC and MMAE cytotoxicity in these cell lines.

In series [2] the test system is NCI-H520. Kind of series: preliminary toxicity study of MMAE in NSCLC line. It is filed as cell-based, human. An excerpt: (§4) There are various linker chemistries for ADCs in use clinically and being investigated, as described in Chapter One. A common motif in ADCs is the valine-citrulline dipeptide which is recognized by human Cathepsin B, a lysosomal enzyme. The full motif typically used is valine-citrulline-p-aminobenzylcarbamate-monomethyl auristin E (vc-MMAE). […] The vc-MMAE structure is used in several FDA approved ADCs (brentuximab vedotin, polatuzumab vedotin, enfortumab vedotin) which target both hematologic and solid tumors.

Another series has as its system NCI-H226. Nature of the series: preliminary toxicity study of MMAE in NSCLC line. The series is classed as cell-based, human.
From the text: as §4

For a further series, the system named is NIH-3T3. Nature of the series: in vitro cytotoxicity, negative control line. The conditions noted are these: NIH-3T3, up to 10 μg/ml ADC or equivalent concentrations, 72 hours.
The next series relates to NHLF. Kind of series: in vitro cytotoxicity (MTT). The series is classed as cell-based, human. The method, then:
as §1, §2, §3

A further series relates to BEAS-2B. Nature of the series: in vitro cytotoxicity (MTT). It is filed as cell-based, human. The method, then:
as §1, §2, §3

The next series deals with A549. Kind of series: in vitro toxicity of αHER2-P3 based ADC. The conditions noted are these: A549, 72 h, up to 10 μg/ml ADC (equivalent to 100 ng/ml MMAE).
Another series has as its system SKBR-3. Nature of the series: in vitro toxicity of αHER2-P3 based ADC. Conditions: SKBR-3, 72 h, up to 10 μg/ml ADC (equivalent to 100 ng/ml MMAE).
A short description of series [3]: preliminary AFC clearance and biodistribution in PDX tumor bearing NSG mice, ELISA. The series is classed as in vivo. The conditions noted are these: 10 mg/kg. The method, then: We had access to a stage four mucinous lung adenocarcinoma patient derived xenograft (PDX) model. We assessed the GPR87 positivity in the tumor and found it to be positive for GPR87. (FIG. 19A) We ran a preliminary study using the AFC to determine whether the AFC would traffic to the tumor in vivo. Twenty-four hours following injection in the tail at 2.5 mg/kg, the tail, tumor, and major organs were collected and imaged with an IVIS system. […] (FIG. 19B) We moved forward with a preliminary study of the AFC in PDX tumor bearing NSG mice. Four mice were injected with 10 mg/kg of AFC once the tumor reached approximately 200-300 mm^3 and blood was drawn at 4 hours, 3 days, and 2 weeks. The mice were intended to be kept for 2 weeks, but one animal had to be euthanized at day 3 due to tumor size. At the 2-week time point, we euthanized the other animals and harvested the organs. The plasma and organ AFC levels were analyzed by a custom ELISA which detects intact AFC, as described in Chapter Four. The results are seen in FIG. 20A. […] We also ran an ELISA with an anti-mouse IgG secondary to determine the total Ab concentrations and assess whether the AFC was being cleared or was not stable (FIG. 20B). The Ab readout detected a higher concentration of Ab than AFC, however, the general trend of clearance is maintained. The concentration even by 3 days is markedly low for our AFC. Whereas we detect <1 μg/ml of AFC at 3 days by either AFC or Ab readout, levels above 10 μg/ml have been reported with similar ADC DAR ratio (˜2) and dose (10 mg/kg). However we are utilizing NSG mice to facilitate the PDX model. It has been reported that NSG mice have enhanced clearance rates of both antibodies and ADCs. However, even in comparison to the clearance rates in NSG mice noted by Li et al., AFC clearance is fast.
We also analyzed the organs at the 3 day and 2 week time point with an ELISA (FIGS. 20C-20D).
In general terms: ELISA stands for enzyme-linked immunosorbent assay.

In series [4] the test system is NCI-H520. Kind of series: internalization of AFC, confocal colocalization with EEA1 / LAMP1. It is filed as cell-based, human. The conditions noted are these: NCI-H520, 3 μg/ml, 30 minutes and 1 hour. The method, then:
(§5) The GPR87 receptor is a G-protein coupled receptor (GPCR), a class of receptors which are activated by an extracellular ligand, initiating activation of associated intracellular G proteins for downstream signaling. Following activation, GPCRs are often internalized and recycled to prevent prolonged stimulation. […] Therefore, we wanted to confirm the uptake of our αGPR87 AFC in the two GPR87 high expressing NSCLC cell lines, NCI-H358 and NCI-H520. We cocultured the cells with 3 μg/ml of AFC for either 30 minutes or 1 hour and fixed and permeabilized the cells before immunofluorescently staining for either the early endosomal marker EEA1 or the lysosomal marker LAMP1. Shown in FIG. 11 are the images from these studies with the AFC signal, either the EEA1 or LAMP1 signal, and DAPI. The merged images are shown as well as the AFC and either EEA1 or LAMP1 signals merged, with colocalization. […] To investigate this further, we increased the concentration of AFC to 10 μg/ml and increased the incubation times to 1, 2, and 4 hours. […] By 2 hours, the AFC now is highly colocalized with the lysosomes and further colocalizes by the 4-hour timepoint while also showing less of a membranous staining pattern. From these analyses, we can determine that the AFC is indeed internalized by the human NSCLC cancer cell lines NCI-H520 and NCI-H358, albeit with different apparent kinetics.

The subject of another series is NCI-H358. The series is described as above. It is filed as cell-based, human. Conditions: NCI-H358, 3 or 10 μg/ml, up to 4 hours. The method, then:
as §5

Series [5] can be described thus: AFC concentration in blood plasma of Balb/c mice, ELISA. The series is classed as in vivo. Conditions: 10 mg/kg, samples at 1 hour, 7 and 14 days. The method, then:
To make sure that the coiled-coil has no significant effect on antibody clearance, we performed a preliminary study of AFC concentration in blood plasma (FIG. 33). 10 mg/kg AFC was injected into two Balb/c mice. Blood samples were collected at 1 hour, 7 and 14 days and examined for AFC concentration by ELISA assay.

Series [6] relates to stage four mucinous lung adenocarcinoma patient derived xenograft (PDX). Nature of the series: preliminary in vivo trafficking of AFC, IVIS imaging of PDX tumor bearing mouse. Conditions: 24 hours after tail injection at 2.5 mg/kg. The method, then:
We had access to a stage four mucinous lung adenocarcinoma patient derived xenograft (PDX) model. We assessed the GPR87 positivity in the tumor and found it to be positive for GPR87. (FIG. 19A) We ran a preliminary study using the AFC to determine whether the AFC would traffic to the tumor in vivo. Twenty-four hours following injection in the tail at 2.5 mg/kg, the tail, tumor, and major organs were collected and imaged with an IVIS system. […] (FIG. 19B) We moved forward with a preliminary study of the AFC in PDX tumor bearing NSG mice. Four mice were injected with 10 mg/kg of AFC once the tumor reached approximately 200-300 mm^3 and blood was drawn at 4 hours, 3 days, and 2 weeks. The mice were intended to be kept for 2 weeks, but one animal had to be euthanized at day 3 due to tumor size. At the 2-week time point, we euthanized the other animals and harvested the organs. The plasma and organ AFC levels were analyzed by a custom ELISA which detects intact AFC, as described in Chapter Four. The results are seen in FIG. 20A. […] The Ab readout detected a higher concentration of Ab than AFC, however, the general trend of clearance is maintained. […] Whereas we detect <1 μg/ml of AFC at 3 days by either AFC or Ab readout, levels above 10 μg/ml have been reported with similar ADC DAR ratio (˜2) and dose (10 mg/kg). […]

Where a SMILES comes first, the peptide text is derived from it. [ ]: non-standard residue; d: D form. The star is where a group is joined. Dolaproine = CO[C@@H]([C@@H]1CCCN1)[C@@H](C)C(=O)O; Dil = CC[C@H](C)[C@H](NC)[C@@H](CC(=O)O)OC; X1 = C[C@@H](N*)[C@@H](O)c1ccccc1; NMeV = CN[C@H](C(=O)O)C(C)C

Experimental for A549: (§6) The toxicity of the new ADC was investigated in vitro in the HER2-positive cell lines: SKBR-3 and A549. We treated the cells with up to 10 μg/ml of ADC (equivalent to 100 ng/ml of MMAE) along with native antibodies and free drug at equivalent concentrations.
Experimental for NIH-3T3: We incubated NIH-3T3s with up to 10 μg/ml of ADC (67 nM, equivalent to 96 ng/ml of MMAE) along with the native antibody and MMAE alone at equivalent concentrations.
Experimental for SKBR-3: as §6

By IC50 is commonly meant the point on the concentration scale where inhibition reaches its midpoint. A high value points to weaker potency. In general, cell viability refers to a per cent measure of how many cells are alive, often set against a control. Turning to `CC[C@H](C)[C@@H]([C@@H](CC(=O)N1CCC[C@H]1[C@H](OC)[C@@H](C)C(=O)N[C@H](C)[C@@H](O)c1ccccc1)OC)N(C)C(=O)[C@@H](NC(=O)[C@@H](NC)C(C)C)C(C)C` [MMAE, Monomethyl auristatin E, reference compound] (H-[NMeV]V[Dil][Dolaproine]-X1), the “increase in IC50 at 72 hours compared to 48 hours” value in the series with NCI-H520 [1] is about 10 fold. Also, the IC50 came to 0.042 nM in the series on NCI-H520 [2] and 0.294 nM with NCI-H226. Also, in the series on NIH-3T3, the cytotoxicity entry is listed as “highly toxic”. Also, the GR50 entry with NHLF is listed as “do not reach that value”; in the series with BEAS-2B it was “cannot be calculated”. In addition, the cell viability in the series with A549 and in the series with SKBR-3 was 20% in each case.

B1: AFC (conjugate)
heavy: EVQLQQSGPDLVKPGASMKISCKASGYSFTDYTMHWVKQSHGKNFEWIGLINPYNDGTTYNQKFKGKATLTVDKSSSTAYMELLSLTSEDSAVYYCASLDYWGQGTSVTVSSAKTTPPSVYPLAPGSAAQTNSMVTLGCLVKGYFPEPVTVTWNSGSLSSGVHTFPAVLQSDLYTLSSSVTVPSSTWPSETVTCNVAHPASSTKVDKKIVPRDCGCKPCICTVPEVSSVFIFPPKPKDVLTITLTPKVTCVVVDISKDDPEVQFSWFVDDVEVHTAQTQPREEQFNSTFRSVSELPIMHQDWLNGKEFKCRVNSAAFPAPIEKTISKTKGRPKAPQVYTIPPPKEQMAKDKVSLTCMITDFFPEDITVEWQWNGQPAENYKNTQPIMDTDGSYFVYSKLNVQKSNWEAGNTFTCSVLHEGLHNHHTEKSLSHSPGKGGGGGMKLKKIKSVLKKIKSVLKKIKSVLKKIKSVVGER
light: DVVMTQTPLSLPVSLGDQASISCRSSQSLVHSSGNTYLHWYLQKPGQSPKLLIYKVSNRFSGVPDRFSGSGSGTDFTLKISRVEAEDLGVYFCSQSTHVPYTFGGGTKLEIKRADAAPTVSIFPPSSEQLTSGGASVVCFLNNFYPKDINVKWKIDGSERQNGVLNSWTDQDSKDSTYSMSSTLTLTKDEYERHNSYTCEATHKTSTSPIVKSFNRNEC
peptide: MKLEEIVSELEEIVSELEEIVKELEEIVYEVGER
In the case of B1, the “plasma concentration at 3 days” value in [3] (by either AFC or Ab readout) is under 1000 ng/mL. Besides, in series [3] (compared to liver, kidney, spleen, heart and lung, preliminary), the “concentration in tumor and organs” value is “highest in the tumor at 3 days and at 2 weeks”. Besides, the clearance result in series [3] (plasma at 4 hours, 3 days, 2 weeks) is given as “rapidly cleared”. Besides, the internalization entry with NCI-H520 [4] and with NCI-H358 was “internalized” each time. In [5], the “AFC concentration in plasma” value is listed as “A small amount of AFC was detected in plasma after 7 days”. In addition, the “fluorescence of tail, tumor and major organs” value in [6] is “tail (injection site) and tumor both showed high fluorescence, with little fluorescence in the major organs”.

The record behind these values is patent US12281161B2, “Polypeptides and uses thereof” (TRUSTEES OF BOSTON UNIVERSITY, priority 2021, dated 2025).
